Our source for the EC50 and CC50 values is patent publication US20240352022A1, “GROUP OF IMB-C5 SERIES COMPOUNDS HAVING ANTI-CORONAVIRUS ACTIVITY AND APPLICATION THEREOF” (priority 2021, published 2024).

Data set [1] relates to HCoV-229E. Description: anti-HCoV-229E activity in Huh7 cells by cytopathic effect (CPE) assay. As to conditions: Human coronavirus 229E, Huh-7, HCoV-229E 100 TCID50 in Huh7 cells, about 48 h. The class given is cell-based, Human coronavirus HCoV-229E. (In general: Damage to the host cells serves as the signal in cytopathic effect assays.)
Data set [2] concerns HCoV-229E. Description: anti-HCoV-229E activity in Huh7.5 cells by cytopathic effect (CPE) assay. The class given is cell-based, Human coronavirus HCoV-229E. Conditions: Human coronavirus 229E, HCoV-229E 100 TCID50 in Huh7.5 cells, about 48 h.
A short description of data set [3]: in vitro. Conditions: human.
Data set [4] in a line: in vitro. Conditions: human. This is another data set of the same source.

Bounds are passed on as bounds.

Broadly, the EC50 is the concentration at which the effect is half-maximal.

Consider `NC(=O)c1ncn([C@@H]2O[C@H](CO)[C@@H](O)[C@H]2O)n1` [RBV, Ribavirin, reference compound], for which the EC50 in data set [1] stood at 26.2 µM; in data set [2], 16.7 µM.
Take `Cn1c(=O)c2c(nc(NCCO)n2Cc2cccc(F)c2F)n(C)c1=O` [IMB-82, 7-(2,3-difluorobenzyl)-8-((2-hydroxyethyl)amino)-1,3-dimethyl-3,7-dihydro-1H-purine-2,6-dione]: the concentration for a half-maximal effect (EC50) in data set [1] is 30.4 µM; in data set [2], 69.3 µM. The CC50 in data set [3] and in data set [4] was over 274 µM in each case.
Regarding `Cn1c(=O)c2c(nc(NCCO)n2Cc2cccc(F)c2)n(C)c1=O` [IMB-80, 7-(3-fluorobenzyl)-8-((2-hydroxyethyl)amino)-1,3-dimethyl-3,7-dihydro-1H-purine-2,6-dione], the 50% effective concentration (EC50) worked out at 10.7 µM in data set [1] and 14 µM in data set [2]. Besides, the CC50 in data set [3] and in data set [4] was over 288 µM each time.
`CCn1c(=O)c2c(nc(NCCO)n2Cc2cccc(OC)c2)n(C)c1=O` [IMB-3-46, ethyl-8-((2-hydroxyethyl)amino)-7-(3-methoxybenzyl)-3-methyl-3,7-dihydro-1H-purine-2,6-dione] yielded an EC50 in data set [1] of 155 µM. In addition, the CC50 in data set [3] is over 200 µM.
The matching figures for `COc1cccc(Cn2c(-n3ccnc3)nc3c2c(=O)n(C)c(=O)n3C)c1` [IMB-2-26, 8-(1H-imidazol-1-yl)-7-(3-methoxybenzyl)-1,3-dimethyl-3,7-dihydro-1H-purine-2,6-dione]: 38.5 µM and over 200 µM.
`COc1cccc(Cn2c(NCc3ccc(F)c(C(F)(F)F)c3)nc3c2c(=O)n(C)c(=O)n3C)c1` [IMB-ZH-11, 8-((4-fluoro-3-(trifluoromethyl)benzyl)amino)-7-(3-methoxybenzyl)-1,3-dimethyl-3,7-dihydro-1H-purine-2,6-dione]: the 50% effective concentration (EC50) came out at 21 µM in data set [1] and 26.6 µM in data set [2]. The CC50 in data set [3] and in data set [4] was over 102 µM throughout.
For the compound `Cn1c(=O)c2c(nc(NCCO)n2Cc2ccc(C(C)(C)C)cc2)n(C)c1=O` [IMB-84, 7-(4-(tert-butyl)benzyl)-8-((2-hydroxyethyl)amino)-1,3-dimethyl-3,7-dihydro-1H-purine-2,6-dione], the values for the EC50 in data set [1] and in data set [2] were 15.4 µM and 12.3 µM, respectively. In addition, the CC50 in data set [3] and in data set [4] was over 259 µM in each case.
In data set [1], `COc1cccc(Cn2c(N3CCN(c4ccc(F)cc4)CC3)nc3c2c(=O)n(C)c(=O)n3C)c1` [IMB-2-31, 8-(4-(4-fluorophenyl)piperazin-1-yl)-7-(3-methoxybenzyl)-1,3-dimethyl-3,7-dihydro-1H-purine-2,6-dione] had an EC50 of 38.5 µM. The CC50 in data set [3] was over 200 µM.
The matching figures for `CCOC(=O)c1cccc(Cn2c(NCCO)nc3c2c(=O)n(C)c(=O)n3C)c1` [IMB-4-6, ethyl3-((8-((2-hydroxyethyl)amino)-1,3-dimethyl-2,6-dioxo-1,2,3,6-tetrahydro-7H-purin-7-yl)methyl)benzoate]: 2.47 µM and 200 µM.
Taken in the same sequence, the figures for `Cn1c(=O)c2c(nc(NCCO)n2Cc2cccc([N+](=O)[O-])c2)n(C)c1=O` [IMB-79] were 17.2 µM and over 200 µM.
Taken in the same sequence, the figures for `Cn1c(=O)c2c(nc(NCCO)n2Cc2ccc(F)cc2)n(C)c1=O` [IMB-2-2, 7-(4-fluorobenzyl)-8-((2-hydroxyethyl)amino)-1,3-dimethyl-3,7-dihydro-1H-purine-2,6-dione] were 3.15 µM and over 200 µM.
In the case of `Cn1c(=O)c2c(nc(NCCO)n2Cc2cccc(Br)c2)n(C)c1=O` [IMB-81, 7-(3-bromobenzyl)-8-((2-hydroxyethyl)amino)-1,3-dimethyl-3,7-dihydro-1H-purine-2,6-dione], the concentration giving a half-maximal response (EC50) in data set [1] stood at 2.47 µM. In data set [3], this compound came in with a CC50 of 124 µM.
The compound `COc1cccc(CCn2c(NCCO)nc3c2c(=O)n(C)c(=O)n3C)c1` [IMB-4-13, 8-((2-hydroxyethyl)amino)-7-(3-methoxyphenethyl)-1,3-dimethyl-3,7-dihydro-1H-purine-2,6-dione] yielded a 50% effective concentration (EC50) in data set [1] of 15.4 µM. Further, the CC50 in data set [3] was over 200 µM.
For `COc1ccc(Cn2c(NCCO)nc3c2c(=O)n(C)c(=O)n3C)cc1` [IMB-88], the half-maximal effective concentration (EC50) was determined as 16.5 µM in data set [1] and 23.5 µM in data set [2]. The CC50 in data set [3] and in data set [4] was over 278 µM throughout.
With `C#CCCn1c(=O)c2c(nc(NCCO)n2Cc2cccc(OC)c2)n(C)c1=O` [IMB-3-45, 1-(but-3-yn-1-yl)-8-((2-hydroxyethyl)amino)-7-(3-methoxybenzyl)-3-methyl-3,7-dihydro-1H-purine-2,6-dione], the response in data set [1] was half-maximal at 66.7 µM (EC50). The CC50 in data set [3] was over 200 µM.
In data set [1], `COc1cccc(Cn2c(NCCO)nc3c2c(=O)n(CCNC(=O)OC(C)(C)C)c(=O)n3C)c1` [IMB-3-57, tert-butyl(2-(8-((2-hydroxyethyl)amino)-7-(3-methoxybenzyl)-3-methyl-2,6-dioxo-2,3,6,7-tetrahydro-1H-purin-1-yl)ethyl)carbamate] returned an EC50 of 66.7 µM. This compound also yielded a CC50 in data set [3] of over 200 µM.
For `COc1cccc(Cn2c(NC[C@H](C)O)nc3c2c(=O)n(C)c(=O)n3C)c1` [IMB-ZHC-7, (S)-8-((2-hydroxypropyl)amino)-7-(3-methoxybenzyl)-1,3-dimethyl-3,7-dihydro-1H-purine-2,6-dione], the figures for the concentration giving a half-maximal response (EC50) in data set [1] and in data set [2] were 19.2 µM and 44.7 µM, respectively. In addition, the CC50 in data set [3] and in data set [4] was over 134 µM in each case.
In data set [1], `COc1cccc(Cn2c(NCCO)nc3c2c(=O)n(Cc2ccc(F)cc2)c(=O)n3C)c1` [IMB-3-13, 1-(4-fluorobenzyl)-8-((2-hydroxyethyl)amino)-7-(3-methoxybenzyl)-3-methyl-3,7-dihydro-1H-purine-2,6-dione] yielded an EC50 of 17.2 µM. Besides, the CC50 in data set [3] amounted to 46.2 µM.
Turning to `COc1cccc(Cn2c(NCCO)nc3c2c(=O)n(Cc2ccncc2)c(=O)n3C)c1` [IMB-3-16, 8-((2-hydroxyethyl)amino)-7-(3-methoxybenzyl)-3-methyl-1-(pyridin-4-ylmethyl)-3,7-dihydro-1H-purine-2,6-dione], the EC50 in data set [1] worked out at 22.2 µM. Moreover, the CC50 in data set [3] was 115 µM.
In data set [1], `Cn1c(=O)c2c(nc(NCCO)n2Cc2ccccc2Br)n(C)c1=O` [IMB-2-6, 7-(2-bromobenzyl)-8-((2-hydroxyethyl)amino)-1,3-dimethyl-3,7-dihydro-1H-purine-2,6-dione] showed an EC50 of 12.8 µM. In data set [3], this compound gave a CC50 of over 200 µM.
The matching figures for `CCn1c(=O)c2c(nc(Br)n2Cc2cccc(OC)c2)n(C)c1=O` [IMB-3-30, 8-bromo-1-ethyl-7-(3-methoxybenzyl)-3-methyl-3,7-dihydro-1H-purine-2,6-dione]: 4.28 µM and 155 µM.
Consider `COC(=O)c1ccc2c(ccn2-c2nc3c(c(=O)n(C)c(=O)n3C)n2Cc2cccc(OC)c2)c1` [IMB-2-32, Methyl-1-(7-(3-methoxybenzyl)-1,3-dimethyl-2,6-dioxo-2,3,6,7-tetrahydro-1H-purin-8-yl)-1H-indole-5-carboxylate], for which, in data set [1], the concentration for a half-maximal effect (EC50) amounted to 5.75 µM. The compound also returned a CC50 in data set [3] of 51.7 µM.
For `COc1cccc(Cn2c(NCCO)nc3c2c(=O)n(CCCNC(=O)OC(C)(C)C)c(=O)n3C)c1` [IMB-3-58, tert-butyl(3-(8-((2-hydroxyethyl)amino)-7-(3-methoxybenzyl)-3-methyl-2,6-dioxo-2,3,6,7-tetrahydro-1H-purin-1-yl)propyl)carbamate], it took 66.7 µM to reach a half-maximal effect in data set [1] (EC50). Also, the CC50 in data set [3] was over 200 µM.
The matching figures for `C#CCn1c(=O)c2c(nc(NCCO)n2Cc2cccc(OC)c2)n(C)c1=O` [IMB-3-72, 8-((2-hydroxyethyl)amino)-7-(3-methoxybenzyl)-3-methyl-1-(prop-2-yn-1-yl)-3,7-dihydro-1H-purine-2,6-dione]: 115 µM and over 200 µM.
Taken in the same sequence, the figures for `COc1ccc(Cn2c(=O)c3c(nc(NCCO)n3Cc3cccc(OC)c3)n(C)c2=O)cc1` [IMB-3-15, 8-((2-hydroxyethyl)amino)-7-(3-methoxybenzyl)-1-(4-methoxybenzyl)-3-methyl-3,7-dihydro-1H-purine-2,6-dione] were 17.2 µM and over 200 µM.
Taken in the same sequence, the figures for `CCCn1c(=O)c2c(nc(NCCO)n2Cc2cccc(OC)c2)n(C)c1=O` [IMB-3-47, 8-((2-hydroxyethyl)amino)-7-(3-methoxybenzyl)-3-methyl-1-propyl-3,7-dihydro-1H-purine-2,6-dione] were 85.9 µM and over 200 µM.
In turn, `COc1cccc(Cn2c(NCCO)nc3c2c(=O)n(C)c(=O)n3Cc2ccccc2)c1` [IMB-3-81, benzyl-8-((2-hydroxyethyl)amino)-7-(3-methoxybenzyl)-1-methyl-3,7-dihydro-1H-purine-2,6-dione] yielded an EC50 in data set [1] of 96.2 µM. Further, in data set [3], the CC50 was over 200 µM.
In the case of `C=CCn1c(=O)c2c(nc(NCCO)n2Cc2cccc(OC)c2)n(C)c1=O` [IMB-3-71, allyl-8-((2-hydroxyethyl)amino)-7-(3-methoxybenzyl)-3-methyl-3,7-dihydro-1H-purine-2,6-dione], the EC50 in data set [1] was 38.5 µM. The same compound had a CC50 in data set [3] of 115 µM.
Take `COc1cccc(Cn2c(NCCO)nc3c2c(=O)n(CC2CCOCC2)c(=O)n3C)c1` [IMB-3-6, 8-((2-hydroxyethyl)amino)-7-(3-methoxybenzyl)-3-methyl-1-((tetrahydro-2H-pyran-4-yl)methyl)-3,7-dihydro-1H-purine-2,6-dione]: the CC50 in data set [3] is over 200 µM.
Turning to `Cn1c(=O)c2c(nc(NCCO)n2Cc2ccsc2)n(C)c1=O` [IMB-4-12, 8-((2-hydroxyethyl)amino)-1,3-dimethyl-7-(thiophen-3-ylmethyl)-3,7-dihydro-1H-purine-2,6-dione], the concentration giving a half-maximal response (EC50) in data set [1] came to 3.99 µM. The compound further yielded a CC50 in data set [3] of over 200 µM.
Regarding `Cn1c(=O)c2c(nc(NCCO)n2Cc2ccc(F)cc2F)n(C)c1=O` [IMB-83, 7-(2,4-difluorobenzyl)-8-((2-hydroxyethyl)amino)-1,3-dimethyl-3,7-dihydro-1H-purine-2,6-dione], the midpoint of the response in data set [1], the EC50, lay at 3.15 µM. This compound gave a CC50 in data set [3] of over 200 µM.
